Laboratory results reported in ChEMBL document CHEMBL4049442, “Design, Synthesis, and Biological Evaluation of Dimorpholine Substituted Thienopyrimidines as Potential Class I PI3K/mTOR Dual Inhibitors” (J Med Chem, 2017).
Active and inactive are the calls of the source. No cut-off for these calls is given here.

Columns and labels:
[1] = biological target: PI3-kinase p110-alpha/p85-alpha (Homo sapiens, UniProt P42336); test: Inhibition of full length recombinant human N-terminal His-tagged PI3K p110alpha/p85alpha expressed in baculovirus using PIP2 as substrate after 1 hr by kinase-glo luminescence assay
Chain of PI3-kinase p110-alpha/p85-alpha (P27986 whole entry): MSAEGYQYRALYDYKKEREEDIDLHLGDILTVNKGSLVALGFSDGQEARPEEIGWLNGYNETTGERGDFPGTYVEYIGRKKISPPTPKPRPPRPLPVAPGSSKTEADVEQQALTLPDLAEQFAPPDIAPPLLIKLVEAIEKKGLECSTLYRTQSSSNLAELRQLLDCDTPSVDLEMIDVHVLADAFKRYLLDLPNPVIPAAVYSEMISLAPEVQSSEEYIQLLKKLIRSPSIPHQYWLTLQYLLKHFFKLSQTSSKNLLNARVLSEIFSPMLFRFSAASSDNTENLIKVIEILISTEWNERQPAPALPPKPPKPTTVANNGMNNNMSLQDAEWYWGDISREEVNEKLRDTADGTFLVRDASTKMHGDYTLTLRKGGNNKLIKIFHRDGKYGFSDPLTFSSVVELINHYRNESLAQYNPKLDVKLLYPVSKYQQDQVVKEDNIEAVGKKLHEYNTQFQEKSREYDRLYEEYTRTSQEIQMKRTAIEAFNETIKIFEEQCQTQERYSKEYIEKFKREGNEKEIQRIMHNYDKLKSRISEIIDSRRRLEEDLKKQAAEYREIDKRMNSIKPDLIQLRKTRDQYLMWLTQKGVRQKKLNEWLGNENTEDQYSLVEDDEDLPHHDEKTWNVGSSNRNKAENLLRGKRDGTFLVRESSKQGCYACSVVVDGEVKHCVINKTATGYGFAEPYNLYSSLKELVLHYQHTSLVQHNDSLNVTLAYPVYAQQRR
Chain of PI3-kinase p110-alpha/p85-alpha (P42336 whole entry): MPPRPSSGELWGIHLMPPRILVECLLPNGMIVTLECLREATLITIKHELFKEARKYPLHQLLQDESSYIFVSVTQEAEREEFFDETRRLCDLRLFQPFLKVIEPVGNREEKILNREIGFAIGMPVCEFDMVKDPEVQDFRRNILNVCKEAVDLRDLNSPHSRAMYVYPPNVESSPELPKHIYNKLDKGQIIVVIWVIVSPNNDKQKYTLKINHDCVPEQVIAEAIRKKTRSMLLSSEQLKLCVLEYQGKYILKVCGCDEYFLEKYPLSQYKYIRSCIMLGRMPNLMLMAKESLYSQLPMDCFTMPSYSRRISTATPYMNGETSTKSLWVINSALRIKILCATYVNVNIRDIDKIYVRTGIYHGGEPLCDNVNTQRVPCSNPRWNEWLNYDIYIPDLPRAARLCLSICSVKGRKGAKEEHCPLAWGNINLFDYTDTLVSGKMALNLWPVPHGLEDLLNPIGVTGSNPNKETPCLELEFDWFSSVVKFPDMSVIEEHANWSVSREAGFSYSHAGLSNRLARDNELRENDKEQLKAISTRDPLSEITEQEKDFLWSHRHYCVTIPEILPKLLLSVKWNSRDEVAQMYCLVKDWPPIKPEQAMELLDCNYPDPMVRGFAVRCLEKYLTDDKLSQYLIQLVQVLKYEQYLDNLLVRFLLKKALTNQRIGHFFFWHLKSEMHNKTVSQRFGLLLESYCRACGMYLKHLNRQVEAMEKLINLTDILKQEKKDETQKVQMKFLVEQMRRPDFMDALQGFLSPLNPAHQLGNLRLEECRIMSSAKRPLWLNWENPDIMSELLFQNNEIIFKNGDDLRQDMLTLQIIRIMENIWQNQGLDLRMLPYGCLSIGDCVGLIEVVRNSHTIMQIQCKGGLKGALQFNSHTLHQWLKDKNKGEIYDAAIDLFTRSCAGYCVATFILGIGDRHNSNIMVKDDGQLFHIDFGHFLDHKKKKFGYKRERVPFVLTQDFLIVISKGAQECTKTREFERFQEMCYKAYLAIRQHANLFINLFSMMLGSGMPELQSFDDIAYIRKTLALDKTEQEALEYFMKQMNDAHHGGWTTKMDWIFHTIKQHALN

[2] = biological target: Serine/threonine-protein kinase mTOR (Homo sapiens, UniProt P42345); test: Inhibition of recombinant human N-terminal FLAG-tagged mTOR (1362 to end residues) expressed in baculovirus infected Sf21 insect cells assessed as reduction in ULight-4E-BP1 phosphorylation after 30 mins by lance ultra assay
PC-3 = test: cells; settings: Homo sapiens, PC-3, 72 h
LNCaP = test: cells; settings: Homo sapiens, 72 h
U-87 MG [3] = test: cells; settings: Homo sapiens, 72 h
SK-OV-3 [4] = test: cells; settings: Homo sapiens, SK-OV-3, 72 h
[5] = biological target: Phosphatidylinositol 4,5-bisphosphate 3-kinase catalytic subunit gamma isoform (Homo sapiens, UniProt P48736); test: Inhibition of recombinant human His-tagged PI3K p110gamma expressed in baculovirus using PIP2 as substrate after 1 hr by kinase-glo luminescence assay
Chain of Phosphatidylinositol 4,5-bisphosphate 3-kinase catalytic subunit gamma isoform (P48736 whole entry, canonical isoform): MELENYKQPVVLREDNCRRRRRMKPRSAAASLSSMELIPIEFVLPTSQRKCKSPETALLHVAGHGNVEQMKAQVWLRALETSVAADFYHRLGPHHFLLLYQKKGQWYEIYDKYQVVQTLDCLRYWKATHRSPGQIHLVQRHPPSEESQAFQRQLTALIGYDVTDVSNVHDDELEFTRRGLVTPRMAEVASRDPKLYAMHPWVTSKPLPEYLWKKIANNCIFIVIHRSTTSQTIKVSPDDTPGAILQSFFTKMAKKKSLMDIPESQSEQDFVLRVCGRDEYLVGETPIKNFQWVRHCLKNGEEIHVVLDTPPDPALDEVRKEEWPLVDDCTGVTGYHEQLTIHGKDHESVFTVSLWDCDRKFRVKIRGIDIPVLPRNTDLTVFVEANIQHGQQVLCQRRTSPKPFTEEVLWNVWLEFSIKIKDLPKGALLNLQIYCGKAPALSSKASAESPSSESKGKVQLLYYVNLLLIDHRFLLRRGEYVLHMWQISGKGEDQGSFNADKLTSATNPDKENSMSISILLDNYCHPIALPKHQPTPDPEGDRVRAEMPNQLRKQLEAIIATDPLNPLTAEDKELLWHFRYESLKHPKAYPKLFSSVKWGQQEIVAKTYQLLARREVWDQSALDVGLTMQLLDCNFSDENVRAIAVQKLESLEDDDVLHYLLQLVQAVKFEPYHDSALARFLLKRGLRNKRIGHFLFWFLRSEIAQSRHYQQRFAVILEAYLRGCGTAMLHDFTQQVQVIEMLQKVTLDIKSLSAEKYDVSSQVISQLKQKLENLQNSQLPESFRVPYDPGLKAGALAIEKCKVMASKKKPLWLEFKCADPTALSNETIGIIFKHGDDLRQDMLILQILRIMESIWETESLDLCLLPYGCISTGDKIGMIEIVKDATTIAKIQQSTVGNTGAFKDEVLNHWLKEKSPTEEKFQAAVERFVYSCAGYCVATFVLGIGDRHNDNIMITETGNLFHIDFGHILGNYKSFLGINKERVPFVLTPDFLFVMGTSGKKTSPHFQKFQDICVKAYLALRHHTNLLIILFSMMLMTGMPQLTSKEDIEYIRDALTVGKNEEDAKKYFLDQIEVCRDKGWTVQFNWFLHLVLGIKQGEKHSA

[6] = biological target: Phosphatidylinositol 4,5-bisphosphate 3-kinase catalytic subunit beta isoform (Homo sapiens, UniProt P42338); test: Inhibition of PI3Kbeta (unknown origin) using PIP2 as substrate after 1 hr by ADP-Glo luminescence assay
Chain of Phosphatidylinositol 4,5-bisphosphate 3-kinase catalytic subunit beta isoform (P42338 whole entry, canonical isoform): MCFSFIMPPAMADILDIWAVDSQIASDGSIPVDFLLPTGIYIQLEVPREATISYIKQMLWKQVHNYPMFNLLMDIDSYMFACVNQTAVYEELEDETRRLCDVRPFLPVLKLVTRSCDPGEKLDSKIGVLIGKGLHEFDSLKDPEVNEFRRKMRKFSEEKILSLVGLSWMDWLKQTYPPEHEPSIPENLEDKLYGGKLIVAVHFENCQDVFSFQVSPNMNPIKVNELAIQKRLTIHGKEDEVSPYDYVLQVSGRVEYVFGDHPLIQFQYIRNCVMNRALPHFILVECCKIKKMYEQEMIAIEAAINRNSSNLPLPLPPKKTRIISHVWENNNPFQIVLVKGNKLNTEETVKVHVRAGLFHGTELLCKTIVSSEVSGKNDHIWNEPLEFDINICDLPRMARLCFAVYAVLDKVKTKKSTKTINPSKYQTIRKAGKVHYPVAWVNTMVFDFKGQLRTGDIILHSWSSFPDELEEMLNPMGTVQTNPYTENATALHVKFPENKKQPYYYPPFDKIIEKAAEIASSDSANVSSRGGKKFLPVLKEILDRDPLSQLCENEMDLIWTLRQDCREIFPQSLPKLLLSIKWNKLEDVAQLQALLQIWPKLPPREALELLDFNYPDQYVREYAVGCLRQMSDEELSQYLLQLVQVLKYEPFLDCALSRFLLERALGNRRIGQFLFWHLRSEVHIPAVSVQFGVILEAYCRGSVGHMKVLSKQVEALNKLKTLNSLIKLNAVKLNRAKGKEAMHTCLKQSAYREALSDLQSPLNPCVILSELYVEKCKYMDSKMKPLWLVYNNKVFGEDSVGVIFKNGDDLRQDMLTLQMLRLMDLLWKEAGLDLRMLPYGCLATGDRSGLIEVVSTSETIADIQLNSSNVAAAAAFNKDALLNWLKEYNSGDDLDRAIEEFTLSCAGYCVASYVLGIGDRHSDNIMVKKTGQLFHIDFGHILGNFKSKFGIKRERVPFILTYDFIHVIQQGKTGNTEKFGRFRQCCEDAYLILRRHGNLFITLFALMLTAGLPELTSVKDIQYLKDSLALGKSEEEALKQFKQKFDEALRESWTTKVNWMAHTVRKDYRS

[7] = biological target: PI3-kinase p110-delta/p85-alpha (Homo sapiens, UniProt O00329); test: Inhibition of recombinant full length human N-terminal His6-tagged PI3K p110delta/p85alpha expressed in baculovirus infected Sf21 cells using PIP2 as substrate after 2 hrs by kinase-glo luminescence assay
Chain of PI3-kinase p110-delta/p85-alpha (P27986 whole entry): as the sequence (P27986 whole entry) above
Chain of PI3-kinase p110-delta/p85-alpha (O00329 whole entry): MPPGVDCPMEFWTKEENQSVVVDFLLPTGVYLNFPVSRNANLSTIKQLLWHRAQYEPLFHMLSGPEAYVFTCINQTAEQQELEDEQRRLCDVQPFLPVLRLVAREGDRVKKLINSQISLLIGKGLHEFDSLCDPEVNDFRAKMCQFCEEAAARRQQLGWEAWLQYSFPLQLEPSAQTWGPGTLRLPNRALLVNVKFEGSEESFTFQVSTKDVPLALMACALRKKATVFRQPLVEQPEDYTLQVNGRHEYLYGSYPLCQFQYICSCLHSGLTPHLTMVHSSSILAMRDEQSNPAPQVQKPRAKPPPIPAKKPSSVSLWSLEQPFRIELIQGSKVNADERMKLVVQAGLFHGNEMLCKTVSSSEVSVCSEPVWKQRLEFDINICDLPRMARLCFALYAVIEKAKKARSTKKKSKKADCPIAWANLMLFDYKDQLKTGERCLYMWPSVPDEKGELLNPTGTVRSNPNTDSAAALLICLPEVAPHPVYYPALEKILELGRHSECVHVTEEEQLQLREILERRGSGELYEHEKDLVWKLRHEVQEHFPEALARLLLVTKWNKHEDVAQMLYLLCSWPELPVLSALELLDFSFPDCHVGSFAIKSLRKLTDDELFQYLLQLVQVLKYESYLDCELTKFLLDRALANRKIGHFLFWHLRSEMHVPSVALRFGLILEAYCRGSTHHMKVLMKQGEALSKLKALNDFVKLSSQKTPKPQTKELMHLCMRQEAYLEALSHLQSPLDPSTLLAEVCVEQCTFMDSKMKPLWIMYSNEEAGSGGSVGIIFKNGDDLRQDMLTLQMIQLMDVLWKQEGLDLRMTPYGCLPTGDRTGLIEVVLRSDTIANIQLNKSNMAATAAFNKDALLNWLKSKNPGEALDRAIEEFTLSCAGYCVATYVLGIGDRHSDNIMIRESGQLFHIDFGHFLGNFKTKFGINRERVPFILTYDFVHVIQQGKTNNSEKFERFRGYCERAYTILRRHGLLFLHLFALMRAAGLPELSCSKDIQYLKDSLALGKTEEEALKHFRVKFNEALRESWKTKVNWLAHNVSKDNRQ

SK-OV-3 [8] = test: Antitumor activity against human SKOV3 cells xenografted in BALB/c nude mouse assessed as tumor growth inhibition at 30 mg/kg/day, po for 24 days measured every 3 days during compound dosing relative to control; type: functional
U-87 MG [9] = test: Antitumor activity against human U87MG cells xenografted in BALB/c nude mouse assessed as tumor growth inhibition at 20 mg/kg/day, po for 18 days measured every 3 days during compound dosing relative to control; type: functional; settings: U-87MG ATCC

Compound	IC50 [1]	IC50 [2]	IC50 (PC-3)	IC50 (LNCaP)	IC50 (U-87 MG [3])	IC50 (SK-OV-3 [4])	IC50 [5]	IC50 [6]	IC50 [7]	TGI (SK-OV-3 [8])	TGI (U-87 MG [9])
C[C@@H]1CN(c2nc(N3CCOCC3)c3sc(-c4ccoc4)cc3n2)C[C@H](C)O1	3560 nM	222 nM	5920 nM	6770 nM	> 25000 nM	21800 nM					
C[C@@H]1CN(c2nc(N3CCOCC3)c3sc(-c4cncnc4)cc3n2)C[C@H](C)O1	9470 nM	> 2000 nM									
CCC(O)c1cc2nc(N3C[C@@H](C)O[C@@H](C)C3)nc(N3CCOCC3)c2s1 (stereo not given in full)	239 nM	> 2000 nM	2970 nM	1600 nM	> 25000 nM	9120 nM					
C[C@@H]1CN(c2nc(N3CCOCC3)c3sc(-c4cccnc4)cc3n2)C[C@H](C)O1	281 nM	612 nM	12800 nM	3000 nM	> 25000 nM	15700 nM					
C[C@@H]1CN(c2nc(N3CCOCC3)c3sc(-c4ccc(N)nc4)cc3n2)C[C@H](C)O1	165 nM	70 nM	7000 nM	1130 nM	> 25000 nM	2900 nM					
C[C@@H]1CN(c2nc(N3CCOCC3)c3sc(-c4ccccc4O)cc3n2)C[C@H](C)O1	> 10000 nM	225 nM	2490 nM	2380 nM	9880 nM	1800 nM					
C[C@@H]1CN(c2nc(N3CCOCC3)c3sc(-c4cnc(N)nc4)cc3n2)C[C@H](C)O1	24 nM	424 nM	3670 nM	4530 nM	> 25000 nM	10000 nM	35 nM	317 nM	171 nM		
COc1ccc(-c2cc3nc(N4C[C@@H](C)O[C@@H](C)C4)nc(N4CCOCC4)c3s2)cn1	> 10000 nM	> 2000 nM									
C[C@@H]1CN(c2nc(N3CCOCC3)c3sc(C(O)Cc4ccccc4)cc3n2)C[C@H](C)O1 (stereo not given in full)	2050 nM	> 2000 nM									
C[C@@H]1CN(c2nc(N3CCOCC3)c3sc(-c4cccc5[nH]ncc45)cc3n2)C[C@H](C)O1	> 10000 nM	> 2000 nM									
C[C@@H]1CN(c2nc(N3CCOCC3)c3sc(-c4ccccc4)cc3n2)C[C@H](C)O1	> 10000 nM	> 2000 nM									
CS(=O)(=O)N1CCN(Cc2cc3nc(-c4cccc5[nH]ncc45)nc(N4CCOCC4)c3s2)CC1										inactive	inactive
C[C@@H]1CN(c2nc(N3CCOCC3)c3sc(-c4ccncc4)cc3n2)C[C@H](C)O1	> 10000 nM	> 2000 nM									
C[C@@H]1CN(c2nc(N3CCOCC3)c3sc(-c4ccnn4C)cc3n2)C[C@H](C)O1	1240 nM	> 2000 nM									
C[C@@H]1CN(c2nc(N3CCOCC3)c3sc(-c4cnn(C)c4)cc3n2)C[C@H](C)O1	4950 nM	> 2000 nM									

More lines, main results first:

IC50 [1]	IC50 [2]	IC50 (PC-3)	IC50 (LNCaP)	IC50 (U-87 MG [3])	IC50 (SK-OV-3 [4])	IC50 [5]	IC50 [6]	IC50 [7]	Compound	TGI (SK-OV-3 [8])	TGI (U-87 MG [9])
216 nM	> 2000 nM	6000 nM	2060 nM	17500 nM	8240 nM				OCc1cc2nc(N3CCOCC3)nc(N3CCOCC3)c2s1		
1030 nM	> 2000 nM								CN1CCN(c2nc(N3CCOCC3)c3sc(CO)cc3n2)CC1		
1870 nM	> 2000 nM								c1cc2nc(N3CCOCC3)nc(N3CCOCC3)c2s1		
191 nM	865 nM	4320 nM	3270 nM	> 25000 nM	7110 nM				C[C@@H]1CN(c2nc(N3CCOCC3)c3sc(C(N)=O)cc3n2)C[C@H](C)O1		
122 nM	632 nM	1380 nM	2590 nM	3290 nM	1220 nM				CC(O)c1cc2nc(N3C[C@@H](C)O[C@@H](C)C3)nc(N3CCOCC3)c2s1 (stereo not given in full)		
> 10000 nM	> 2000 nM								c1nc2c(N3CCOCC3)nc(N3CCOCC3)nc2[nH]1		
681 nM	336 nM	2670 nM	1820 nM	21200 nM	2890 nM				OCc1cc2nc(N3CCOc4ccccc43)nc(N3CCOCC3)c2s1		
694 nM	270 nM	2750 nM	4430 nM	4450 nM	990 nM				C[C@@H]1CN(c2nc(N3CCOCC3)c3sc(-c4ccccn4)cc3n2)C[C@H](C)O1		
197 nM	73 nM	1740 nM	1100 nM	8760 nM	830 nM				Cc1c(-c2ccn[nH]2)sc2c(N3CCOCC3)nc(N3C[C@@H](C)O[C@@H](C)C3)nc12		
299 nM	335 nM	1320 nM	2630 nM	> 25000 nM	2170 nM				C[C@@H]1COCCN1c1nc(N2CCOCC2)c2sc(CO)cc2n1		
675 nM	> 2000 nM								CC(=O)c1cc2nc(N3CCOCC3)nc(N3CCOCC3)c2s1		
4820 nM	> 2000 nM								CS(=O)(=O)N1CCN(Cc2cc3nc(N4CCOCC4)nc(N4CCOCC4)c3s2)CC1		
249 nM	603 nM	2260 nM	4200 nM	> 25000 nM	2180 nM				OCc1cc2nc(N3CCSCC3)nc(N3CCOCC3)c2s1		
4180 nM	172 nM	3050 nM	2390 nM	> 25000 nM	18900 nM				C[C@@H]1CN(c2nc(N3CCOCC3)c3sc(-c4ccc[nH]4)cc3n2)C[C@H](C)O1		
> 10000 nM	> 2000 nM								C[C@@H]1CN(c2nc(N3CCOCC3)c3sc(-c4ccsc4)cc3n2)C[C@H](C)O1		
6180 nM	> 2000 nM								c1cc2c(N3CCOCC3)nc(N3CCOCC3)nc2[nH]1		
995 nM	427 nM	> 25000 nM	4050 nM	> 25000 nM	10100 nM				C[C@@H]1CN(c2nc(N3CCOCC3)c3sc(-c4cn[nH]c4)cc3n2)C[C@H](C)O1		
2200 nM	109 nM	> 25000 nM	2640 nM	12800 nM	5910 nM				C[C@@H]1CN(c2nc(N3CCOCC3)c3sc(-c4ccco4)cc3n2)C[C@H](C)O1		
279 nM	> 2000 nM	15000 nM	6160 nM	> 25000 nM	23300 nM				CS(=O)(=O)N1CCN(c2nc(N3CCOCC3)c3sc(CO)cc3n2)CC1		
237 nM	> 2000 nM	> 25000 nM	23600 nM	2440 nM	> 25000 nM				O=C(O)c1cc2nc(N3CCOCC3)nc(N3CCOCC3)c2s1		
216 nM	463 nM	1050 nM	1780 nM	6590 nM	4990 nM				C[C@@H]1CN(c2nc(N3CCOCC3)c3sc(CO)cc3n2)C[C@H](C)O1		
